Measured values from patent publication US4182896A, “Indane derivatives” (Societe Hexachimie, priority 1974, dated 1980).
Structures can show the parent of a compound that is named as a salt.

Legend:
[1] = system: male mice (SPF1, OF1 strain); assay: Analgesic activity: inhibition of pain reactions (abdominal twistings) after intraperitoneal phenylbenzoquinone, oral administration; assay type: in vivo; details: for percentage inhibition of pain reactions: mouse; for ED50: read-out: ED50 (50% effective dose), analgesic; for inhibition in vivo at 8 mg/kg: 8 mg/kg oral; for inhibition in vivo at 4 mg/kg: 4 mg/kg oral
Protocol: The products tested are administered orally to batches of 6 male mice (SPF1, OF1 strain) weighing 19-20 g.
1 hour later, 0.3 ml of a 0.02% strength solution of phenylbenzoquinone is injected intraperitoneally into each mouse and, from the 5th to the 10th minute after the latter treatment, the number of pain reactions (abdominal twistings) is counted.
Table V to VIII below give the percentage inhibition of these reactions.

[2] = system: SPF male rats, OFA strain; assay: Anti-inflammatory activity: paw swelling after subcutaneous plantar injection of carraghenine, oral administration; assay type: in vivo; details: for inhibition in vivo at 32 mg/kg: 32 mg/kg oral; for ED50: read-out: ED50 (50% effective dose), anti-inflammatory; for inhibition in vivo at 512 mg/kg: 512 mg/kg oral
Protocol: Anti-inflammatory activity
The products to be tested are administered orally to batches of 12 SPF male rats, OFA strain, weighing 120-130 g, 2 hours and 30 minutes (1/2 dose each time) before the subcutaneous plantar injection of 0.05 ml of a 1% strength solution of carraghenine. The volume of the back paw which received the phlogogenic agent is measured at regular intervals. The 50% effective dose is calculated at the moment of greatest swelling of the controls.
The results are given in Tables I to IV below, in which the percentage reduction in the inflammation is noted.

[3] = Mus musculus, po, 32 mg/kg oral, read-out: percentage inhibition of pain reactions
[4] = 16 mg/kg oral, rat, carraghenine
[5] = Rattus norvegicus, po, carraghenine, read-out: percentage reduction in the inflammation
[6] = Rattus norvegicus, po, 64 mg/kg oral, carraghenine, read-out: percentage reduction in the inflammation
[7] = Rattus norvegicus, po, 128 mg/kg oral, carraghenine, read-out: percentage reduction in the inflammation
[8] = Rattus norvegicus, po, 256 mg/kg oral, carraghenine, read-out: percentage reduction in the inflammation
[9] = Rattus norvegicus, po, at the moment of greatest swelling of the controls
[10] = Mus musculus, po, 64 mg/kg oral, read-out: percentage inhibition of pain reactions
[11] = Mus musculus, po, 128 mg/kg oral, read-out: percentage inhibition of pain reactions
[12] = Mus musculus, po, 256 mg/kg oral, read-out: percentage inhibition of pain reactions
[13] = Mus musculus, po, 16 mg/kg oral, read-out: percentage inhibition of pain reactions
[14] = Rattus norvegicus, po, 16 mg/kg oral, carraghenine, read-out: percentage reduction in the inflammation
[15] = Mus musculus, po, read-out: percentage inhibition of pain reactions
[16] = Rattus norvegicus, po, 4 mg/kg oral, carraghenine, read-out: percentage reduction in the inflammation

Compound | inhibition in vivo at 32 mg/kg [1, 3] | ED50 ([1]; Mus musculus, po) | inhibition in vivo at 32 mg/kg [2, 5] | inhibition in vivo at 64 mg/kg [2, 6] | inhibition in vivo at 128 mg/kg [2, 7] | inhibition in vivo at 256 mg/kg [2, 8] | ED50 [2, 9] | inhibition in vivo at 64 mg/kg [1, 10] | inhibition in vivo at 128 mg/kg [1, 11] | inhibition in vivo at 16 mg/kg [1, 13] | inhibition in vivo at 16 mg/kg [2, 14] | inhibition in vivo at 8 mg/kg [1, 15] | inhibition in vivo at 4 mg/kg [2, 16] | also measured
CCC(C(=O)O)c1ccc2c(c1)CC(C(C)C)C2 (stereo not drawn) [Example 20, Dimethylaminoethanol salt of 2-ethyl-[2-isopropyl-indanyl-(5)]-acetic acid] | 26% | 175 mg/kg | 24% | 25% | 38% | 37% | > 256 mg/kg | – | – | – | – | – | – | percentage inhibition of pain reactions ([1]; 128 mg/kg oral): 27%; percentage inhibition of pain reactions ([1]; 256 mg/kg oral): 74%; percentage inhibition of pain reactions ([1]; 512 mg/kg oral): 100%; percentage reduction in the inflammation [2, 4]: 16%
CC1Cc2ccc(CC(=O)OCCN3CCOCC3)cc2C1 (stereo not drawn) [Example 21, Hydrochloride of the morpholino-ethyl ester of [2-methyl-indanyl-(5)]-acetic acid] | – | 200 mg/kg | 17% | 25% | 52% | 68% | 130 mg/kg | 2% | 51% | – | – | – | – | inhibition in vivo at 256 mg/kg [1, 12]: 71%; inhibition in vivo at 512 mg/kg ([1]; Mus musculus, po, 512 mg/kg oral, read-out: percentage inhibition of pain reactions): 81%
CC1Cc2ccc(C(C)C(=O)OCCN3CCOCC3)cc2C1 (stereo not drawn) [Example 22, Oxalate of the morpholino-ethyl ester of 2-methyl-[2-methyl-indanyl-(5)]-acetic acid] | 19% | 45 mg/kg | 7% | 12% | 11% | 34% | 480 mg/kg | 73% | 86% | 13% | 17% | – | – | inhibition in vivo at 256 mg/kg [1, 12]: 98%; inhibition in vivo at 512 mg/kg [2, 5]: 52%
CC1(C)Cc2ccc(CC(=O)OCCN3CCOCC3)cc2C1 [Example 23, Hydrochloride of the morpholino-ethyl ester of [2,2-dimethyl-indanyl-(5)]-acetic acid] | 36% | – | 9% | 30% | 50% | 55% | 140 mg/kg | 82% | 45% | 20% | – | 1% | – | inhibition in vivo at 256 mg/kg [1, 12]: 45%; inhibition in vivo at 512 mg/kg [2, 5]: 90%
CC(C(=O)OCCN1CCOCC1)c1ccc2c(c1)CC(C)(C)C2 (stereo not drawn) [Example 24, Hydrochloride of the morpholino-ethyl ester of 2-methyl-[2,2-dimethyl-indanyl-(5)]-acetic acid] | 32% | 35 mg/kg | 21% | 36% | 50% | 57% | 142 mg/kg | 53% | 97% | 24% | 7% | 0% | – | inhibition in vivo at 512 mg/kg [2, 5]: 73%
CC(C(=O)OCCN1CCOCC1)c1ccc2c(c1)CC(C1CCCCC1)C2 (stereo not drawn) [Example 25, Hydrochloride of the morpholino-ethyl ester of 2-methyl-[2-cyclohexyl-indanyl-(5)]-acetic acid] | 19% | 80 mg/kg | 28% | 7% | 12% | 10% | > 256 mg/kg | 50% | 64% | – | 26% | – | – | –
CCC1Cc2ccc(C(C)C(=O)OCCN3CCOCC3)cc2C1 (stereo not drawn) [Example 26, Oxalate of the morpholino-ethyl ester of 2-methyl-[2-ethyl-indanyl-(5)]-acetic acid] | 69% | 18 mg/kg | 47% | 54% | 68% | 70% | 40 mg/kg | 94% | – | 52% | 38% | 17% | – | –
CC(C(=O)OCCN(C)C)c1ccc2c(c1)CC(C(C)C)C2 (stereo not drawn) [Example 27, Hydrochloride of the dimethylaminoethyl ester of 2-methyl-[2-isopropyl-indanyl-(5)]-acetic acid] | 69% | – | – | 61% | 64% | 76% | 22 mg/kg | 94% | 99% | 42% | 54% | 7% | 29% | –
CCN(CC)CCOC(=O)C(C)c1ccc2c(c1)CC(C(C)C)C2 (stereo not drawn) [Example 28, Oxalate of the diethylaminoethyl ester of 2-methyl-[2-isopropylindanyl-(5)]-acetic acid] | 66% | 20 mg/kg | – | 66% | 72% | 79% | 24 mg/kg | 86% | – | 40% | 31% | 20% | 37% | inhibition in vivo at 4 mg/kg [1, 15]: 21%
CC(C(=O)OC(C)(C)CN(C)C)c1ccc2c(c1)CC(C(C)C)C2.O=C(O)/C=C\C(=O)O (stereo not drawn) [Example 29, Maleate of the dimethylamino-α-dimethyl-ethyl ester of 2-methyl-[2-isopropyl-indanyl-(5)]-acetic acid] | – | – | – | – | – | – | – | – | – | – | – | – | – | percentage inhibition of pain reactions ([1]; 16 mg/kg oral): 8%; percentage inhibition of pain reactions ([1]; 32 mg/kg oral): 43%; percentage inhibition of pain reactions ([1]; 64 mg/kg oral): 57%; percentage inhibition of pain reactions ([1]; 128 mg/kg oral): 86%; percentage inhibition of pain reactions ([1]; 256 mg/kg oral): 96%; percentage reduction in the inflammation ([2]; 4 mg/kg oral, rat, carraghenine): 12%; percentage reduction in the inflammation [2, 4]: 35%; percentage reduction in the inflammation ([2]; 64 mg/kg oral, rat, carraghenine): 45%; percentage reduction in the inflammation ([2]; 128 mg/kg oral, rat, carraghenine): 72%; percentage reduction in the inflammation ([2]; 256 mg/kg oral, rat, carraghenine): 65%; ED50 (50% effective dose), anti-inflammatory ([2]; oral, rat, at the moment of greatest swelling of the controls): 55 mg/kg
CC(C(=O)OCCN1CCCCC1)c1ccc2c(c1)CC(C(C)C)C2 (stereo not drawn) [Example 30, Oxalate of the piperidine-ethyl ester of 2-methyl-[2-isopropyl-indanyl-(5)]-acetic acid] | 32% | 37 mg/kg | – | 55% | 47% | 52% | – | 73% | 99% | 11% | 32% | – | 10% | –
CC(C(=O)OCCN1CCCC1)c1ccc2c(c1)CC(C(C)C)C2 (stereo not drawn) [Example 32, Maleate of the pyrrolidino-ethyl ester of 2-methyl-[2-isopropyl-indanyl-(5)]-acetic acid] | 79% | 18 mg/kg | – | 59% | 55% | – | 65 mg/kg | 99% | – | 47% | 21% | 6% | 19% | –
CC(CO)c1ccc2c(c1)CC(C(C)C)C2 (stereo not drawn) [Example 33, 2-Methyl-β-[2-isopropyl-indanyl-(5)]-ethanol] | 90% | 9 mg/kg | 34% | 52% | 58% | 63% | 85 mg/kg | – | – | 68% | 13% | 42% | – | inhibition in vivo at 2 mg/kg ([1]; Mus musculus, po, 2 mg/kg oral, read-out: percentage inhibition of pain reactions): 6%; inhibition in vivo at 4 mg/kg [1, 15]: 25%; inhibition in vivo at 8 mg/kg ([2]; Rattus norvegicus, po, 8 mg/kg oral, carraghenine, read-out: percentage reduction in the inflammation): 0%
